Assay results from patent US20240175062A1, “LIPOXYGENASE-BASED RECOMBINANT MICROORGANISMS, AND METHOD FORPREPARING HYDROXY FATTY ACIDS AND SECONDARY FATTY ALCOHOLS USING SAME” (EWHA UNIVERSITY - INDUSTRY COLLABORATION FOUNDATION, priority 2021, published 2024).
Where two headings read alike, the source gives them in different places.

Columns and labels:
[1] = biological target: Enhygromyxa salina-derived lipoxygenase (EsLOX) (Enhygromyxa salina, UniProt A0A0C2CV93); assay: Enzymatic activity of purified EsLOX for long-chain unsaturated fatty acids (UV-vis spectrophotometer, 234 nm); format: biochemical; conditions: substrate of purified EsLOX, 50 mM EPPS (pH 8.5) buffer
Experimental: The culture medium was centrifuged at 13,000×g at 4° C. for 30 minutes and washed twice with phosphate-buffered saline, and added with 50 mM monosodium phosphate (NaH2PO4), 300 mM sodium chloride, 10 mM imidazole, 0.1 mM protease inhibitor (phenylmethylsulfonyl fluoride), and 400 U lysozyme, and then the cell solution was lysed with a sonicator. The cell lysate was centrifuged at 13,000×g at 4° C. for 10 minutes, and then the pellet was removed to separate only a cell supernatant. The cell supernatant was flowed onto a resin packed with an Ni-NTA agarose resin (Qiagen). The protein bound to the resin was washed with a wash buffer (50 mM NaH2PO4, 300 mM NaCl, 20/30 mM imidazole), eluted with an elution buffer (50 mM NaH2PO4, 300 mM NaCl, 250 mM imidazole) to purify Enhygromyxa lipoxygenase. Thereafter, a sample containing the purified Enhygromyxa lipoxygenase was prepared by obtaining a concentrated protein solution using 30 kDa Amicon.
Then, the enzymatic activity of the enzyme sample was measured using a UV-vis spectrophotometer (234 nm). More specifically, as the linoleic acid dioxygenation reaction progressed, the rate of increase in absorbance of a product, conjugated diene, was measured using the spectrophotometer, and the reaction time was measured for each of 10 seconds up to 180 seconds.

[2] = substrate: CCCCC/C=C\C/C=C\C/C=C\C/C=C\CCCC(=O)O; assay: cells, lysate or membranes named; conditions: other: substrate of purified EsLOX, 234 nm, 50 mM EPPS (pH 8.5) buffer

`CCCCC/C=C\C/C=C\CCCCCCCC(=O)O` [Linoleic acid, linoleic acid] gave a Km ([1]; read-out: KM) of 90 µM.

`CCCCC/C=C\C/C=C\C/C=C\CCCCC(=O)O` [γ-Linolenic acid, γ-linolenic acid] showed a Km [1] of 130 µM.

Molecule `CC/C=C\C/C=C\C/C=C\CCCCCCCC(=O)O` [α-Linolenic acid, α-linolenic acid] has a Km ([1]; read-out: KM) of 120 µM.

B1: Enhygromyxa salina-derived lipoxygenase (EsLOX) (Enhygromyxa salina) (protein)
chain: MSNIPTLPQNDPRPEQRAQQLDKARETYKYADLLPPLAFCEGVPKPDTPSAAWLVTVGKVAAAVALNAVANRRAWKRGDHDEEDASFDVGGTSEEDQNEAGHNSFLARLENFDEEAVSFAPGDEPSVLDEVNERVAAILGAKPNRHVPPAQADDDDNGDDGDGDESFGVLDGNVSKDGPNGRPQSMDDYANLFRRITLPPIASTWKNDSAFAAYRVAGPNASMIQRITELPDNFAVTDAHYKQAMGEGDSLDAAKAEGRLFLADWKLIGETLVNNTYKGAQKTVYAPLALFAVPPGGGSLAPVAIQPGQTPSPTNKIYATQDGNDWLAAKSAVQVAEGNYHELVSHLGLTHLLLEPIVMATYRQLAQHHPIYMLLIPHFEGTLSINNSAATNLIAPGGAVDLIFAGTIESEHQLALAALKRHDFMRSGLPDTIEQRGVGDTSVLTDYPYRDDGLKIWANIERWVTAYVNNYYISEANVTQDTELQAWAAVLSKPFAEGGVSGFGPIDTRAALIFACTKVIFTASAEHSAVNFPQKDLMSYAPAITGAGWTAAPPSQGPLKDFQPPLELAELQAEFLYLLGGVHHTKLGFYNSNSFPYRAWFKDPKITAELLPAFQRDLAASEELIVAANATRTFKYTYMIPSTIPMSINI
In the case of B1, the Km [2] is reported as 80 µM and the kcat/Km [2] is reported as 290000 M⁻¹ s⁻¹.
